Experimental data published in PMC6624297 (Cell Death & Disease, 2019).

What was measured:
human TS (hTS) = target: T1, human TS (hTS) (Homo sapiens, UniProt P04818); test: Thymidylate synthase (TS) spectrophotometric assay; type: biochemical; details: averages from triplicate assays
T1 construct: purchased ProSpec-Tany
Method: Recombinant human thymidylate synthase purchased from ProSpec-Tany Company. TS was assayed spectrophotometrically at 30 °C and pH 7.4 in a mixture containing 0.1 M 2-mercaptoethanol, 0.0003 M (6R,S)-tetrahydrofolate, 0.012 M formaldehyde, 0.02 M MgCl2, 0.001 M dUMP, 0.04 M Tris–HCl, 30 nM hTS, and 0.00075 M NaEDTA. […] The reaction was initiated by the addition of an amount of enzyme yielding a change in absorbance at 340 nm of 0.016/min in the absence of inhibitor.

BRaf kinase = BRaf kinase (Homo sapiens, UniProt P15056); test: ADP-Glo kinase assay, BRaf; type: biochemical; details: averages from triplicate assays
Method: (§1) The ADP-Glo™ kinase assay (Promega, Madison, WI) was used to screen target compounds for their inhibition effects for BRaf, EGFR kinase. The kinase assay was carried out in a 96-well plate, in a volume of 25 μL HEPES (pH 7.3) solvent containing 1.6 μg/mL EGF, and 20 ng of EGFR kinase, or 50 ng BRaf kinase, and 10 μM ATP (Promega, Madison, WI). […] Reactions in each well were started immediately by adding ATP and kept going for half an hour under 30 °C in a constant temperature incubator (Bluepard, Shanghai, China). After the plate cooled for 5 min at room temperature, 25 μl of ADP-Glo reagent was added into each well to stop the reaction and consume the remaining […] within 40 min. At the end, 50 μl of kinase detection reagent was added into the well and incubated for 1 h to produce a luminescence signal.

EGFR kinase = EGFR kinase (Homo sapiens, UniProt P00533); test: ADP-Glo kinase assay, EGFR; type: biochemical; details: averages from triplicate assays
Method: as §1

A549 cells = test: MTT assay A549; type: cell-based, human; details: Homo sapiens, A549, 24h of treatment, mean ± SD
Method: (§2) Details are given in Supplementary Materials and Methods. Using probability unit and weighted regression method to calculate the IC50 value of compounds.
(§3) Total cells in the logarithmic growth phase were collected, digested using 0.25% pancreatic enzymes, and then diluted into single-cell suspensions using phosphate-buffered solution (PBS). These cells were seeded into 96-well plates at 4× 10^3-5× 10^3 cells per well (100 µL per well) and then A549, H460, OVCAR-3, SGC7901, MDA-MB-231, HCT116 and HepG2 were cultured at 37°Cin an incubator containing 5% CO2. After cell complete attachment, 100 µL of different concentrations of compounds (0.625 μM, 1.25 μM, 2.5μM, 5 μM, 10 μM) were added to the cells after the nutrient solution in each well was discarded, while no compound except 0.1% DMSO was added to cells in the control group; at the same time, each concentration was set up to 5 wells. In addition, 5 wells in each 96-well plate only received 100 µL of nutrient solution as a blank control. The plates were taken out after the cells were incubated with compounds for 24 h, and 20 µL of MTT solution (5 mg/mL) (Wuhan Boster Biotechnology Limited Company, Wuhan, China; item No. AR1156) was added into all the wells. After another time of incubation for 4 h at 37 °C, the nutrient solution in each well was discarded slowly, and 150 µL of DMSO was added to each well. The plates were shaken on a shaking table for 20 min. When the crystals were fully dissolved, the blank wells were used to zero the plate reader. The optical density (OD) of each well was detected at 490 nm. The IC50 value was determined as the concentration of the inhibitor that caused 50% inhibition. Using probability unit and weighted regression method to calculate the IC50 value of compounds.

OVCAR-3 cells = test: MTT assay OVCAR-3; type: cell-based; details: Homo sapiens, 24h of treatment, mean ± SD
Method: as §2, §3

SGC7901 cells = test: MTT assay SGC7901; type: cell-based; details: Homo sapiens, SGC-7901, 24h of treatment, mean ± SD
Method: as §2, §3

HCT-116 cells = test: MTT assay HCT-116; type: cell-based; details: Homo sapiens, 24h of treatment, mean ± SD
Method: as §2, §3

MDA-MB-231 cells = test: MTT assay MDA-MB-231; type: cell-based; details: Homo sapiens, 24h of treatment, mean ± SD
Method: as §2, §3

HepG2 cells = test: MTT assay HepG2; type: cell-based; details: Homo sapiens, 24h of treatment, mean ± SD
Method: as §2, §3

T1 sequence (P04818 whole entry): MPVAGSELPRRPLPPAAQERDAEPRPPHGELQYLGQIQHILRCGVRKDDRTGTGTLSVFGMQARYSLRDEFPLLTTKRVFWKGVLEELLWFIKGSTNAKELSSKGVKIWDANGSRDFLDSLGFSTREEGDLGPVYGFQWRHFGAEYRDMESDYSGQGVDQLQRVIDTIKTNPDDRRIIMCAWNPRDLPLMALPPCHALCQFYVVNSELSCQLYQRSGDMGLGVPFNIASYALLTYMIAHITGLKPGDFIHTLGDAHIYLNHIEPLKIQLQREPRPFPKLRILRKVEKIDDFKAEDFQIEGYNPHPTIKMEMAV
Sequence of EGFR kinase (P00533 25-1210): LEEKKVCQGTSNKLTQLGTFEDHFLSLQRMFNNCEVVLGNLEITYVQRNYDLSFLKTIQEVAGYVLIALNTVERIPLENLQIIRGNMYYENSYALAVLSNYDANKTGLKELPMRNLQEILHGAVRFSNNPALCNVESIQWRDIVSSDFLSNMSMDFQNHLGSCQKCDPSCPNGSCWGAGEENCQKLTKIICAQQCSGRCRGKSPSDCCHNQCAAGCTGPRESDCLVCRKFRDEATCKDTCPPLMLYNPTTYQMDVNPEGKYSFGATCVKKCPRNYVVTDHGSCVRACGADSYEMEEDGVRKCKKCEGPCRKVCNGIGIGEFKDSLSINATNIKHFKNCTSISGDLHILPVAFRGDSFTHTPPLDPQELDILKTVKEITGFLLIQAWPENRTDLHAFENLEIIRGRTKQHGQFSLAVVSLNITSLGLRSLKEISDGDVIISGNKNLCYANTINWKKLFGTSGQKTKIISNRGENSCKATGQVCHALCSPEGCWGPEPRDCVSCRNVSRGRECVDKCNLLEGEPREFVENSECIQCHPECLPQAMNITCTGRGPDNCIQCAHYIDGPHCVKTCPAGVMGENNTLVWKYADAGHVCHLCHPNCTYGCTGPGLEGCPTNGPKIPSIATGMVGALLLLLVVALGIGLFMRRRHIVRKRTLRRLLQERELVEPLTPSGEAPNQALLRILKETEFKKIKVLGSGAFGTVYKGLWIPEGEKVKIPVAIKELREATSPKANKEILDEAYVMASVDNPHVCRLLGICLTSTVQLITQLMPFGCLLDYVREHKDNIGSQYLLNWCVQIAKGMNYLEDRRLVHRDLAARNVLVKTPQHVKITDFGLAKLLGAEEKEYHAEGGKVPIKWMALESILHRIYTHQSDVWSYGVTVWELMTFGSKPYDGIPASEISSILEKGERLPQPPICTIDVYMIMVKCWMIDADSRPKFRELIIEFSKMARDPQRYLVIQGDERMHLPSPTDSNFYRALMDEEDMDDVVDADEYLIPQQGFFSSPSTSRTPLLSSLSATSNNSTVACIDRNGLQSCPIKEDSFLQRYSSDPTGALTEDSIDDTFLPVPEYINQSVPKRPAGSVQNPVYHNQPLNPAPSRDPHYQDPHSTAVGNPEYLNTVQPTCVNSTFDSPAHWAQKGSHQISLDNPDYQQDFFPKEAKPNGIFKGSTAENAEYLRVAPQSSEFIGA
Sequence of BRaf kinase (P15056 whole entry): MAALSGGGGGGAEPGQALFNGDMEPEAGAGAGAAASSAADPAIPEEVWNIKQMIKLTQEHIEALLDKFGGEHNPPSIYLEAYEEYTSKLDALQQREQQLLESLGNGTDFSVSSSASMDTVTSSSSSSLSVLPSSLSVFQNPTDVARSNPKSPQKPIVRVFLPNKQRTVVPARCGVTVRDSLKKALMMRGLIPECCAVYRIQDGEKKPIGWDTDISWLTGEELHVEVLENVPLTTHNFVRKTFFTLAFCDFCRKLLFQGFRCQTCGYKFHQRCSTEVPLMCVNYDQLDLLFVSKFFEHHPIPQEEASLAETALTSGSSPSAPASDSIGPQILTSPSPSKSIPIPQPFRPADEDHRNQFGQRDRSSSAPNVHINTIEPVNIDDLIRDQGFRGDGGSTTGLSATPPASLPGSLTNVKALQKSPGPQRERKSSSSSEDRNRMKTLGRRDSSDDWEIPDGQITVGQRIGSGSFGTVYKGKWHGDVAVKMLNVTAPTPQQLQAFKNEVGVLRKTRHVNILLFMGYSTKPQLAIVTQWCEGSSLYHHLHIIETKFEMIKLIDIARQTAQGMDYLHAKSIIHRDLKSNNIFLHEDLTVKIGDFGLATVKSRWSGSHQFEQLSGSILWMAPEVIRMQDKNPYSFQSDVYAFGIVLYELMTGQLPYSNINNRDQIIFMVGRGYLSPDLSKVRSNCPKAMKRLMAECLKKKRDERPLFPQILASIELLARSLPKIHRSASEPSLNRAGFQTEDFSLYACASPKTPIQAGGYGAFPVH

Row | Compound | IC50 (human TS (hTS)) [µM] | IC50 (BRaf kinase) [µM] | IC50 (EGFR kinase) [µM] | IC50 (A549 cells) [µM] | IC50 (OVCAR-3 cells) [µM] | IC50 (SGC7901 cells) [µM] | IC50 (HCT-116 cells) [µM] | IC50 (MDA-MB-231 cells) [µM] | IC50 (HepG2 cells) [µM] | melting point [°C]
1 | Cc1ccc(NC(=O)Nc2ccccc2NS(=O)(=O)c2c[nH]c(=O)[nH]c2=O)cc1 [Compound L14i, N'-(4-methylphenyl)-2-(2,4-dihydroxypyrimidine-5-sulfonamido)phenylurea] | 6.98 | 5.45 | > 10 | 1.37 ± 0.45 | > 10 | 5.13 ± 0.44 | 5.62 ± 0.61 | 7.3 ± 0.1 | 5.72 ± 0.21 | 165 to 169
2 | O=C(Nc1ccc(NS(=O)(=O)c2c[nH]c(=O)[nH]c2=O)cc1)Nc1cccc(Cl)c1 [Compound L13e, N'-(3-chlorophenyl)-4-(2,4-dihydroxypyrimidine-5-sulfonamido)phenylurea] | 4.55 | 3.64 | 4.41 | 0.95 ± 0.05 | 1.05 ± 0.42 | 3.38 ± 0.18 | 2.46 ± 0.06 | 2.48 ± 1.46 | 2.81 ± 0.16 | 169 to 171
3 | Cc1cccc(NC(=O)Nc2ccc(NS(=O)(=O)c3c[nH]c(=O)[nH]c3=O)cc2)c1 [Compound L13h, N'-(3-methylphenyl)-4-(2,4-dihydroxypyrimidine-5-sulfonamido)phenylurea] | 4.57 | 3.53 | 3.99 | 1.85 ± 0.13 | 9.56 ± 0.94 | 6.35 ± 0.52 | 5.46 ± 1.21 | > 10 | 5.83 ± 0.18 | 179 to 182
4 | O=C(Nc1ccc(Cl)cc1)Nc1ccc(NS(=O)(=O)c2c[nH]c(=O)[nH]c2=O)cc1 [Compound L13f, N'-(4-chlorophenyl)-4-(2,4-dihydroxypyrimidine-5-sulfonamido)phenylurea] | 6.3 | 3.59 | 4.65 | 0.99 ± 0.07 | 8.04 ± 0.32 | 3.98 ± 0.05 | 5.53 ± 0.25 | 8.89 ± 2.42 | 4.35 ± 0.45 | 175 to 177
5 | Cc1ccccc1NC(=O)Nc1ccccc1NS(=O)(=O)c1c[nH]c(=O)[nH]c1=O [Compound L14g, N'-(2-methylphenyl)-2-(2,4-dihydroxypyrimidine-5-sulfonamido)phenyl urea] | 6.47 | 7.41 | > 10 | 2.09 ± 0.72 | > 10 | 5.4 ± 0.09 | 4.82 ± 0.19 | > 10 | 5.59 ± 0.64 | 151 to 154
6 | Cc1ccc(NC(=O)Nc2ccc(NS(=O)(=O)c3c[nH]c(=O)[nH]c3=O)cc2)cc1 [Compound L13i, N'-(4-methylphenyl)-4-(2,4-dihydroxypyrimidine-5-sulfonamido) phenyl urea] | 7.39 | 4.91 | 5.48 | 3.48 ± 0.13 | > 10 | 4.92 ± 0.23 | 7.98 ± 0.61 | > 10 | 8.25 ± 0.25 | 181 to 183
7 | Cc1ccc(NC(=O)Nc2cccc(NS(=O)(=O)c3c[nH]c(=O)[nH]c3=O)c2)cc1 [Compound L15i, N'-(4-methylphenyl)-3-(2,4-dihydroxypyrimidine-5-sulfonamido)phenyl urea] | 8.3 | 7.23 | 8.67 | 4.18 ± 0.46 | > 10 | 6.96 ± 1.53 | 9.5 ± 1.6 | 9.06 ± 1.13 | 6.96 ± 0.59 | 173 to 175
8 | O=C(Nc1ccc(NS(=O)(=O)c2c[nH]c(=O)[nH]c2=O)cc1)Nc1ccccc1Cl [Compound L13d, N'-(2-chlorophenyl)-4-(2,4-dihydroxypyrimidine-5-sulfonamido)phenylurea] | 2.36 | 2.39 | 4.22 | 2.01 ± 0.14 | 1.73 ± 0.44 | 5.3 ± 0.28 | 4.13 ± 0.16 | > 10 | 6.56 ± 0.15 | 167 to 169
9 | Cc1ccccc1NC(=O)Nc1ccc(NS(=O)(=O)c2c[nH]c(=O)[nH]c2=O)cc1 [Compound L13g, N'-(2-methylphenyl)-4-(2,4-dihydroxypyrimidine-5-sulfonamido)phenyl urea] | 9.25 | > 10 | > 10 | 4.68 ± 0.11 | 2.68 ± 0.38 | 6.39 ± 0.19 | 4.75 ± 0.07 | > 10 | 9.16 ± 0.12 | 169 to 173
10 | Cc1cccc(NC(=O)Nc2cccc(NS(=O)(=O)c3c[nH]c(=O)[nH]c3=O)c2)c1 [Compound L15h, N'-(3-methylphenyl)-3-(2,4-dihydroxypyrimidine-5-sulfonamido)phenyl urea] | 7.16 | 6.38 | 7.1 | 1.46 ± 0.5 | 5.98 ± 0.6 | 4.78 ± 0.62 | 6.15 ± 0.53 | 6.41 ± 0.41 | 5.97 ± 0.21 | 165 to 169
11 | O=C(Nc1ccccc1Cl)Nc1ccccc1NS(=O)(=O)c1c[nH]c(=O)[nH]c1=O [Compound L14d, N'-(2-chlorophenyl)-2-(2,4-dihydroxypyrimidine-5-sulfonamido)phenyl urea] | 1.91 | 1.62 | 2.39 | 3.29 ± 0.3 | 7.27 ± 1.23 | 5.22 ± 0.18 | 4.96 ± 0.63 | 6.71 ± 0.18 | 2.2 ± 0.06 | 151 to 153
12 | CNC(=O)c1cc(Oc2ccc(NC(=O)Nc3ccc(Cl)c(C(F)(F)F)c3)cc2)ccn1 [Sorafenib, reference compound] | – | – | – | > 10 | > 10 | > 10 | > 10 | > 10 | 8.21 ± 0.34 | –
